Results on seven molecules are retold here after patent publication US20080201871A1, “ANTIMICROBIAL COLORANTS” (The Regents of the University of California, priority 2003, published 2008).

Series [1] relates to E. coli. Put plainly: Antimicrobial efficacy (log reduction) at fixed concentration and contact time. The conditions noted are these: E. coli 10^7~10^8 CFU/ml; for Antimicrobial Efficacy (log reduction): 10 ppm. The format is cell-based, Escherichia coli.
The subject of series [2] is S. aureus. The series is described as above. The format is cell-based, Staphylococcus aureus. The conditions noted are these: contact time 1 minute, 10 ppm.
The test system of series [3] is Staphylococcus aureus (S. aureus, ATCC #12600, Gram-positive). Put plainly: Minimum inhibitory concentration (MIC) procedure in aqueous solution. The conditions noted are these: 10^7~10^8 CFU/mL, contact time: 24 hr, MIC = minimum concentration giving more than 4 log reductions. The format is cell-based. The method, then:
(§1) Antimicrobial activity of the agents in aqueous solution was evaluated by a minimum inhibitory concentration (MIC) procedure ([…]. et al., Pharm. Sci., 65(12):1737 (1976)). MIC refers to the lowest concentration of biocides that prohibit population and reproduction of microorganisms. […] Antimicrobial properties of the antimicrobial colorants in aqueous solutions were measured by the MIC procedure.

Series [4] relates to Escherichia coli (E. coli, K-12, Gram-negative). Described as above. The format is cell-based. The conditions noted are these: 10^7~10^8 CFU/mL, contact time: 24 hr, MIC = minimum concentration giving more than 4 log reductions. How it is done:
as §1

Series [5] relates to E. coli. In words: Antimicrobial efficacy (log reduction) at fixed concentration and contact time. Type of series: cell-based, Escherichia coli. The following applies: for Antimicrobial efficacy (Log reduction): contact time 1 minute; for Antimicrobial efficacy (Log reduction) / Antimicrobial Efficacy (log reduction): 10 ppm. The method, then: Antimicrobial activity of the agents in aqueous solution was evaluated by a minimum inhibitory concentration (MIC) procedure (Kaminski, J. J., Hyycke, N. M. et al., Pharm. Sci., 65(12):1737 (1976)). MIC refers to the lowest concentration of biocides that prohibit population and reproduction of microorganisms. In this method, 1 mL of an aqueous suspension containing 10^6˜10^7 colony-forming units (CFU)/mL of Staphylococcus aureus (S. aureus, ATCC #12600, Gram-positive) or Escherichia coli (E. coli, K-12, Gram-negative) were placed into 9 mL aqueous solutions containing different concentrations of the agents for a contact time of 24 hours. After the contact, a 100 μL aliquot of the resultant solution was serially diluted by sterilized distilled water to 10^1, 10^2, 10^3, 10^4 and 10^5. 100 μL of the last four dilutions were placed onto a nutrient agar plate and incubated at 37° C. for 24 hours. The same procedure was applied to a distilled water solution without the antimicrobial agents as a control. In this paper, the reported MIC of the antimicrobial colorants is the minimum concentrations that can eliminate more than 4 log reductions of bacteria (1 log reduction is 90%, 2 log reduction is 99%, and so forth).
To better study the biocidal rate of these colorants, the antimicrobial efficacy of the colorants in terms of log reduction is assessed against E. Coli under different contact time ranging from 15 minutes to 24 hours.
Next, the antimicrobial efficacy of the colorants is further challenged by reducing the contact time down to 1 minute at the concentration of 10 ppm.

Series [6] is described as follows: Stability study of colorant solutions by UV-vis absorbance. The format is physicochemical. The conditions noted are these: 100 ppm aqueous; 100° C. for 4 hours. How it is done: The stability of the antimicrobial colorants was qualitatively studied by using a UV-vis spectrophotometer under different experimental conditions. The tests were performed with antimicrobial colorant solutions at the concentration of 100 ppm in flasks. The colorants were sampled and the absorbance at the maximum absorption wavelength was tested before treatment as a reference. After visible light exposure in a conditioning room for over 30 days, or heating at boiling for 4 hours, or changing to different pH conditions (pH=4 and 10) for over 24 hours, the solutions were sampled, centrifuged, filtered and tested by UV. The new UV-vis spectra were taken and compared with the control.
The stability of the antimicrobial colorants is of great importance because they are mostly applied in aqueous solutions as biocides or dyes. All stability tests were conducted at a concentration of 100 ppm.
In practical applications, these colorants could be used under either acidic or basic conditions, particularly in coloration of acrylics, nylon and wool. For example, acidic dye bath is preferred for dyeing wool fabrics. Thus, the stability of the colorants in low or high pH solution is more important for textile applications. […] The low stability of those colorants was caused by hydrolysis of an amide linkage between QAS and aminoanthraquinone. […]

Regarding `CCCCCCCCCCCCCCCC[N+](C)(C)Cc1ccccc1.[Cl-]` [Benzalkonium chloride, Benzyldimethyl-hexadecylammonium chloride, reference compound], the “Antimicrobial Efficacy (log reduction)” value in series [1] was found to be 2 log reduction.

For the molecule `CCCC[N+](C)(C)CC(O)CNc1ccc(NCC(O)C[N+](C)(C)CCCC)c2c1C(=O)c1ccccc1C2=O.[Cl-].[Cl-]` (centres unmarked) [Di-4], the “Antimicrobial efficacy (Log reduction)” value in series [2] and in series [5] was 0 Log reduction each time. The “MIC of cationic colorants” value in series [3] and in series [4] was 200 ppm in each case. For the same molecule, the “Antimicrobial Efficacy (log reduction)” value in series [5] (contact time 0.25 hr), in series [5] (contact time 0.5 hr), in series [5] (contact time 1 hr), in series [5] (contact time 2 hr), in series [5] (contact time 4 hr) and in series [5] (contact time 8 hr) was 0 log reduction in each case. For the same molecule, the “Antimicrobial Efficacy (log reduction)” value in series [5] (contact time 16 hr) and in series [5] (contact time 24 hr) was 0 log reduction throughout.

For `CCCCCCCC[N+](C)(C)CC(O)CNc1ccc(NCC(O)C[N+](C)(C)CCCCCCCC)c2c1C(=O)c1ccccc1C2=O.[Cl-].[Cl-]` (centres unmarked) [Di-8], the “MIC of cationic colorants” value in series [3] and in series [4] was 5 ppm in each case. Also, in series [1] (5 ppm, contact time 1 minute), the Log reduction was 1 Log reduction. In addition, the “Antimicrobial Efficacy (log reduction)” value in series [5] (contact time 0.25 hr), in series [5] (contact time 0.5 hr), in series [5] (contact time 1 hr), in series [5] (contact time 2 hr), in series [5] (contact time 4 hr) and in series [5] (contact time 8 hr) was above 4 log reduction throughout. The “Antimicrobial Efficacy (log reduction)” value in series [5] (contact time 16 hr) and in series [5] (contact time 24 hr) was above 4 log reduction throughout.

Regarding `CCCCCCCCCCCCCCCC[N+](C)(C)CC(O)CNc1ccc(NCC(O)C[N+](C)(C)CCCCCCCCCCCCCCCC)c2c1C(=O)c1ccccc1C2=O.[Cl-].[Cl-]` (centres unmarked) [Di-16], the “Antimicrobial efficacy (Log reduction)” value in series [2] and in series [5] was 0 Log reduction throughout. The “MIC of cationic colorants” value in series [3] and in series [4] was 60 ppm each time.

Turning to `CCCCCCCCCCCC[N+](C)(C)CC(O)CNc1ccc(NCC(O)C[N+](C)(C)CCCCCCCCCCCC)c2c1C(=O)c1ccccc1C2=O.[Cl-].[Cl-]` (centres unmarked) [Di-12], the “Change of UV-vis absorbance after heating” value in series [6] was “slight increases in absorbance”. Further, the “Change of UV-vis wavelength after heating” value in series [6] is recorded as “negligible change”. Besides, the “MIC of cationic colorants” value in series [3] and in series [4] was 4 ppm throughout. For the same molecule, the “Antimicrobial Efficacy (log reduction)” value in series [1] was above 5 log reduction; in series [5] (contact time 0.25 hr), above 4 log reduction; in series [5] (contact time 0.5 hr), above 4 log reduction; in series [5] (contact time 1 hr) it was above 4 log reduction; in series [5] (contact time 2 hr), above 4 log reduction; in series [5] (contact time 4 hr), above 4 log reduction. Also, the “Antimicrobial Efficacy (log reduction)” value in series [5] (contact time 8 hr), in series [5] (contact time 16 hr) and in series [5] (contact time 24 hr) was above 4 log reduction in each case. Moreover, the “Biocidal activity compared with CTAB, CPC and Benzalkonium chloride” value in series [5] (Table 6 conditions) is listed as “more efficient in biocidal activity than the other three bactericides”.

On to `CCCCCCCCCCCCCCCC[N+](C)(C)CC(O)CNc1cccc2c1C(=O)c1ccccc1C2=O.[Cl-]` (centres unmarked) [Compound M-16], for which the “Antimicrobial efficacy (Log reduction)” value in series [2] and in series [5] was 0 Log reduction each time. Moreover, the “MIC of cationic colorants” value in series [3] and in series [4] was 60 ppm each time.

In the case of `CCCCCCCCCCCCCCCC[N+](C)(C)C.[Br-]` [CTAB, Cetyltrimethyl ammonium bromide, reference compound], the “Antimicrobial Efficacy (log reduction)” value in series [1] came out at 0 log reduction.
